Legend:
SK-N-MC = assay: In vitro inhibition of CGRP-mediated cAMP production in SK-N-MC cells; format: functional, cell-based; settings: Homo sapiens
[1] = target: T1, Calcitonin gene-related peptide type 1 receptor (Homo sapiens, UniProt O60894+Q16602); assay: Displacement of [125I]hCGRP human Calcitonin gene-related peptide type receptor expressed in SK-N-MC neuroblastoma cell membranes
[2] = target: T2, Type-1 angiotensin II receptor A (Rattus norvegicus) (UniProt P25095); assay: Compound (up to 30 uM) was tested in vitro for percent effectiveness for ligand binding to Angiotensin II receptor
T2 sequence (whole entry): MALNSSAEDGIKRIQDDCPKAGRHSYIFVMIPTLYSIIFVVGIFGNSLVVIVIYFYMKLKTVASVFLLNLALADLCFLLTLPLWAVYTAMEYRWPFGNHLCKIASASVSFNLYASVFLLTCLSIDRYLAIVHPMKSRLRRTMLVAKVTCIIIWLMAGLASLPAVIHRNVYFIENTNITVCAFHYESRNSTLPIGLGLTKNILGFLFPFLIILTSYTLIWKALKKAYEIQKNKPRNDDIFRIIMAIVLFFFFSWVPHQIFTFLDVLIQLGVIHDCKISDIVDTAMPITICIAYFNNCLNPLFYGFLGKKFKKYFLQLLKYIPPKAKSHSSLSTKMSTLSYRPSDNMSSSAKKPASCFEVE

[3] = target: T3, Endothelin-1 receptor (Homo sapiens) (UniProt P25101); assay: Compound (up to 30 uM) was tested in vitro for percent effectiveness for ligand binding to ETA receptors
T3 sequence (whole entry): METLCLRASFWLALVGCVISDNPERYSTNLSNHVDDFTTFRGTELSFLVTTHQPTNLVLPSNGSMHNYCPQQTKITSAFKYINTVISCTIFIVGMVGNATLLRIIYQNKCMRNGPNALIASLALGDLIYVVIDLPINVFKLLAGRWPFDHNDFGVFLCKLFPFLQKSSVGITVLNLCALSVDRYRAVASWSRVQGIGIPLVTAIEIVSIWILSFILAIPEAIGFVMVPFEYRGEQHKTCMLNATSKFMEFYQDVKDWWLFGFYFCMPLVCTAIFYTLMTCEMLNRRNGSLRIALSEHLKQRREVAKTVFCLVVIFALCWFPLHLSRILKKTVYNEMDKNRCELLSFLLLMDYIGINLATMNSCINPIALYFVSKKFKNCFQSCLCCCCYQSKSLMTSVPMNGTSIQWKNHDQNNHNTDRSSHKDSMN

[4] = Inhibitory concentration in vitro using porcine lung membrane (to identify non-peptide antagonist of the CGRP receptor); format: functional, cell membranes, Sus scrofa
[5] = target: G-protein coupled receptor 182 (Homo sapiens) (UniProt O15218); assay: Compound (up to 30 uM) was tested in vitro for percent effectiveness for ligand binding to Adrenomedullin receptor
Chain of G-protein coupled receptor 182 (Homo sapiens) (O15218 whole entry): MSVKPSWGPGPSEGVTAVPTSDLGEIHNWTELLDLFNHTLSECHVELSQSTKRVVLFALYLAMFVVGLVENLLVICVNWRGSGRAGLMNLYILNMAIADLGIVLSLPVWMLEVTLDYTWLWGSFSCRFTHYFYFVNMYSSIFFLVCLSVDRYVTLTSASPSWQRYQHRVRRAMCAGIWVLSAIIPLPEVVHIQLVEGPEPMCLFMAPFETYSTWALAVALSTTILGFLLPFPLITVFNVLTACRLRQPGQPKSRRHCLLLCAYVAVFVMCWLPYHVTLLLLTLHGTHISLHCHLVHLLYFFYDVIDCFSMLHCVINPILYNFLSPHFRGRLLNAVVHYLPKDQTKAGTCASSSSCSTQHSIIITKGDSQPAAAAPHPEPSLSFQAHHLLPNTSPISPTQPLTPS

[6] = target: T4, Endothelin receptor type B (Homo sapiens) (UniProt P24530); assay: Compound (up to 30 uM) was tested in vitro for percent effectiveness for ligand binding to ETB receptors
T4 sequence (whole entry): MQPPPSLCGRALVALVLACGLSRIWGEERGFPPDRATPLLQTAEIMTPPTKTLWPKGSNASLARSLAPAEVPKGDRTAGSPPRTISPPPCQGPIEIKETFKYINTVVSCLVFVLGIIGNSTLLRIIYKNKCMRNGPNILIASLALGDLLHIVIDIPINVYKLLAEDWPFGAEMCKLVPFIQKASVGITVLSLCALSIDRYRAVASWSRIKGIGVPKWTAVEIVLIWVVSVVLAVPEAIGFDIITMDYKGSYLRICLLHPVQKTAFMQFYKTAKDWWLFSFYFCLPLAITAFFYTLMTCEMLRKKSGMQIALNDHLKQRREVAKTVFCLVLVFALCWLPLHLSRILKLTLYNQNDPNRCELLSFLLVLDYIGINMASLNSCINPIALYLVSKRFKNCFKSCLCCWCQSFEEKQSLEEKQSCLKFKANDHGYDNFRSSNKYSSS

[7] = target: T5, Vasoactive intestinal peptide receptor (Gallus gallus) (UniProt A5A0U0); assay: Compound (up to 30 uM) was tested in vitro for percent effectiveness for ligand binding to Vasoactive intestinal peptide receptor
T5 sequence (whole entry): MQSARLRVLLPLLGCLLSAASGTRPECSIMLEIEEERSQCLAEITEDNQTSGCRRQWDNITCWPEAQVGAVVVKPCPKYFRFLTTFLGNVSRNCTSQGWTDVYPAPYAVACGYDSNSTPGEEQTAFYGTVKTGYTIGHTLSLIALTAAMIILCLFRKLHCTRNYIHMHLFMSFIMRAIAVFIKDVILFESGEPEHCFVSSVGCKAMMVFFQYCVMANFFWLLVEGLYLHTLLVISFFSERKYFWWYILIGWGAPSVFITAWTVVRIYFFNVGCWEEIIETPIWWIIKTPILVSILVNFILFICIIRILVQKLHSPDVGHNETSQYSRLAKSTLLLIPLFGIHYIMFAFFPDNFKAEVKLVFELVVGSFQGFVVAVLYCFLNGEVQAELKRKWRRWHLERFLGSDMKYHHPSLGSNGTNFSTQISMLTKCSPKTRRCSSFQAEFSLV

[8] = Compound (up to 30 uM) was tested in vitro for percent effectiveness for ligand binding to GLP-1 receptors
[9] = target: T1, Calcitonin gene-related peptide type 1 receptor; assay: Compound was tested in vitro for its binding affinity towards recombinant human Calcitonin gene-related peptide type receptor (membranes of HEK293 cells) using [125I]hCGRP as radioligand; format: cell membranes

T1 sequence (Q16602 whole entry, one chain of several): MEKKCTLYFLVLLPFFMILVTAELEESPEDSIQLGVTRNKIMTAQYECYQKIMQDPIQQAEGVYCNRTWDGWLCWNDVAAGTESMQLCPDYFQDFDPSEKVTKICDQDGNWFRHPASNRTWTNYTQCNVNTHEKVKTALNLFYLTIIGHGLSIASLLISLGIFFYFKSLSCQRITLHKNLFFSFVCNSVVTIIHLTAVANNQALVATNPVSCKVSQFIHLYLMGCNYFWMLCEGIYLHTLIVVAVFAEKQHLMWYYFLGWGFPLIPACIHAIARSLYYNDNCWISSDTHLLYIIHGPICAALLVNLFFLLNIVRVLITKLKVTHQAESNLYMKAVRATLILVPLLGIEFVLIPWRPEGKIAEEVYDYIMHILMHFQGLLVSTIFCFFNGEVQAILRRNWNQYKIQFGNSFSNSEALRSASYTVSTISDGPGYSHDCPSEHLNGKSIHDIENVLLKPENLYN

Row | SMILES | IC50 (SK-N-MC) [µM] | IC50 [1] [µM] | also measured
1 | CCC1CN2CCC1CC2[C@H](O)c1cc(-c2ccc(F)c(Cl)c2)nc2ccc(OC)cc12 (stereo partly specified) | 14 | 17 | –
2 | CCC1CN2CCC1CC2[C@H](O)c1cc(-c2ccc(OC)cc2)nc2ccc(OC)cc12 (stereo partly specified) | – | > 100 | –
3 | CCC1CN2CCC1CC2[C@H](O)c1cc(-c2cccc([N+](=O)[O-])c2)nc2ccc(OC)cc12 (stereo partly specified) | – | 41 | –
4 | CCC1CN2CCC1CC2[C@H](O)c1cc(-c2ccsc2)nc2ccc(OC)cc12 (stereo partly specified) | – | > 100 | –
5 | CCC1CN2CCC1CC2[C@H](O)c1cc(-c2cccc(N)c2)nc2ccc(OC)cc12 (stereo partly specified) | > 100 | > 100 | –
6 | CCC1CN2CCC1CC2[C@H](O)c1cc(-c2ccc(C(F)(F)F)cc2)nc2ccc(OC)cc12 (stereo partly specified) | 24 | 5.2 | –
7 | CCC1CN2CCC1CC2[C@H](O)c1cc(-c2ccccc2)nc2ccc(OC)cc12 (stereo partly specified) | 65 | 96 | –
8 | CCC1CN2CCC1CC2[C@H](O)c1cc(-c2cccc3ccccc23)nc2ccc(OC)cc12 (stereo partly specified) | 23 | 33 | –
9 | CCC1CN2CCC1CC2[C@H](O)c1cc(-c2ccc(Cl)cc2Cl)nc2ccc(OC)cc12 (stereo partly specified) | 28 | 37 | –
10 | CCC1CN2CCC1CC2[C@H](O)c1cc(-c2ccc3c(c2)OCO3)nc2ccc(OC)cc12 (stereo partly specified) | 60 | 74 | –
11 | CCC1CN2CCC1CC2[C@H](O)c1cc(-c2ccc(Oc3ccccc3)cc2)nc2ccc(OC)cc12 (stereo partly specified) | 22 | 12 | –
12 | CCC1CN2CCC1CC2[C@H](O)c1cc(-c2ccc(Cl)cc2)nc2ccc(OC)cc12 (stereo partly specified) | 26 | 5.9 | inhibition [2]: < 20%; inhibition [3]: < 20%; IC50 [4]: 6 µM; inhibition [5]: < 20%; inhibition [6]: < 20%; inhibition [7]: < 20%; inhibition [8]: < 20%; IC50 [9]: 5.5 µM
13 | CCC1CN2CCC1CC2[C@H](O)c1cc(-c2cccc(C(F)(F)F)c2)nc2ccc(OC)cc12 (stereo partly specified) | 20 | 9.9 | –

Reference: ChEMBL document CHEMBL1150009, “Quinine analogs as non-peptide calcitonin gene-related peptide (CGRP) receptor antagonists” (Bioorg Med Chem Lett, 1997)
